Measurements taken from US20230123334A1, “AMINO LIPID COMPOUND, PREPARATION METHOD THEREFOR, AND APPLICATION THEREOF” (SHENZHEN SHENXIN BIOTECHNOLOGY CO., LTD., priority 2020, published 2023).

Test system: HEK293 cells
Test: Preliminary screening as mRNA vectors, EGFP mRNA transfection of HEK293 cells
Type: cell-based
Settings: EGFP mRNA 50 ng per well, 96-well plates; percentage of GFP fluorescent cells relative to total number of cells (Hoechst)
Method in brief: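 Each well of HEK293 cells received 50 ng of EGFP mRNA. Efficiency was expressed as percent GFP-expressing cells over Hoechst-defined total cell number.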

| SMILES | Absolute mRNA transfection efficiency in HEK293 cells |
| --- | --- |
| CCCCCCCCCSc1nc(NCCCCCC)nc(NCCCN(C)C)n1 [Compound D6S9N6] | 1.4% |
| CCCCCCCCCSc1nc(NCCCCCCC)nc(NCCCN(C)C)n1 [Compound D6S9N7] | 1.2% |
| CCCCCCCCCSc1nc(NCCCCCCCC)nc(NCCCN(C)C)n1 [Compound D6S9N8] | 7.5% |
| CCCCCCCCCNc1nc(NCCCN(C)C)nc(SCCCCCCCCC)n1 [Compound D6S9N9] | 19.8% |
| CCCCCCCCCCCNc1nc(NCCCN(C)C)nc(SCCCCCCCCC)n1 [Compound D6S9N11] | 58.8% |
| CCCCCCCCCCCCNc1nc(NCCCN(C)C)nc(SCCCCCCCCC)n1 [Compound D6S9N12] | 39.3% |
| CCCCCCCCCCCCCNc1nc(NCCCN(C)C)nc(SCCCCCCCCC)n1 [Compound D6S9N13] | 70.9% |
| CCCCCCCCCCCCCCCNc1nc(NCCCN(C)C)nc(SCCCCCCCCC)n1 [Compound D6S9N15] | 36.5% |
| CCCCCCCCCCCCCCCCNc1nc(NCCCN(C)C)nc(SCCCCCCCCC)n1 [Compound D6S9N16] | 46.2% |
| CCCCCCCCCCCCCCCCCCNc1nc(NCCCN(C)C)nc(SCCCCCCCCC)n1 [Compound D6S9N18] | 44.8% |
| CCCCCCCCCCSc1nc(NCCCCCC)nc(NCCCN(C)C)n1 [Compound D6S10N6] | 1.5% |
| CCCCCCCCCCSc1nc(NCCCCCCC)nc(NCCCN(C)C)n1 [Compound D6S10N7] | 4.4% |
| CCCCCCCCCCSc1nc(NCCCCCCCC)nc(NCCCN(C)C)n1 [Compound D6S10N8] | 3.7% |
| CCCCCCCCCCSc1nc(NCCCCCCCCC)nc(NCCCN(C)C)n1 [Compound D6S10N9] | 8.7% |
| CCCCCCCCCCCNc1nc(NCCCN(C)C)nc(SCCCCCCCCCC)n1 [Compound D6S10N11] | 10.0% |
| CCCCCCCCCCCCNc1nc(NCCCN(C)C)nc(SCCCCCCCCCC)n1 [Compound D6S10N12] | 25.4% |
| CCCCCCCCCCCCCNc1nc(NCCCN(C)C)nc(SCCCCCCCCCC)n1 [Compound D6S10N13] | 10.2% |
| CCCCCCCCCCCCCCCNc1nc(NCCCN(C)C)nc(SCCCCCCCCCC)n1 [Compound D6S10N15] | 3.5% |
| CCCCCCCCCCCCCCCCNc1nc(NCCCN(C)C)nc(SCCCCCCCCCC)n1 [Compound D6S10N16] | 51.5% |
| CCCCCCCCCCCCCCCCCCNc1nc(NCCCN(C)C)nc(SCCCCCCCCCC)n1 [Compound D6S10N18] | 31.8% |
| CCCCCCCCCCCSc1nc(NCCCCCC)nc(NCCCN(C)C)n1 [Compound D6S11N6] | 1.7% |

| SMILES | Absolute mRNA transfection efficiency in HEK293 cells |
| --- | --- |
| CCCCCCCCCCCSc1nc(NCCCCCCC)nc(NCCCN(C)C)n1 [Compound D6S11N7] | 29.1% |
| CCCCCCCCCCCSc1nc(NCCCCCCCC)nc(NCCCN(C)C)n1 [Compound D6S11N8] | 16.8% |
| CCCCCCCCCCCSc1nc(NCCCCCCCCC)nc(NCCCN(C)C)n1 [Compound D6S11N9] | 45.1% |
| CCCCCCCCCCCNc1nc(NCCCN(C)C)nc(SCCCCCCCCCCC)n1 [Compound D6S11N11] | 35.5% |
| CCCCCCCCCCCCNc1nc(NCCCN(C)C)nc(SCCCCCCCCCCC)n1 [Compound D6S11N12] | 15.9% |
| CCCCCCCCCCCCCNc1nc(NCCCN(C)C)nc(SCCCCCCCCCCC)n1 [Compound D6S11N13] | 10.0% |
| CCCCCCCCCCCCCCCNc1nc(NCCCN(C)C)nc(SCCCCCCCCCCC)n1 [Compound D6S11N15] | 13.1% |
| CCCCCCCCCCCCCCCCNc1nc(NCCCN(C)C)nc(SCCCCCCCCCCC)n1 [Compound D6S11N16] | 6.2% |
| CCCCCCCCCCCCCCCCCCNc1nc(NCCCN(C)C)nc(SCCCCCCCCCCC)n1 [Compound D6S11N18] | 14.6% |
| CCCCCCCCCCCCSc1nc(NCCCCCC)nc(NCCCN(C)C)n1 [Compound D6S12N6] | 1.1% |
| CCCCCCCCCCCCSc1nc(NCCCCCCC)nc(NCCCN(C)C)n1 [Compound D6S12N7] | 13.0% |
| CCCCCCCCCCCCSc1nc(NCCCCCCCC)nc(NCCCN(C)C)n1 [Compound D6S12N8] | 30.5% |
| CCCCCCCCCCCCSc1nc(NCCCCCCCCC)nc(NCCCN(C)C)n1 [Compound D6S12N9] | 24.0% |
| CCCCCCCCCCCCSc1nc(NCCCCCCCCCCC)nc(NCCCN(C)C)n1 [Compound D6S12N11] | 14.0% |
| CCCCCCCCCCCCNc1nc(NCCCN(C)C)nc(SCCCCCCCCCCCC)n1 [Compound D6S12N12] | 10.4% |
| CCCCCCCCCCCCCNc1nc(NCCCN(C)C)nc(SCCCCCCCCCCCC)n1 [Compound D6S12N13] | 5.5% |
| CCCCCCCCCCCCCCCNc1nc(NCCCN(C)C)nc(SCCCCCCCCCCCC)n1 [Compound D6S12N15] | 1.6% |
| CCCCCCCCCCCCCCCCNc1nc(NCCCN(C)C)nc(SCCCCCCCCCCCC)n1 [Compound D6S12N16] | 1.9% |
| CCCCCCCCCCCCCCCCCCNc1nc(NCCCN(C)C)nc(SCCCCCCCCCCCC)n1 [Compound D6S12N18] | 1.7% |
| CCCCCCCCCCCCCCSc1nc(NCCCCCC)nc(NCCCN(C)C)n1 [Compound D6S14N6] | 59.9% |
| CCCCCCCCCCCCCCSc1nc(NCCCCCCC)nc(NCCCN(C)C)n1 [Compound D6S14N7] | 90.8% |

| SMILES | Absolute mRNA transfection efficiency in HEK293 cells |
| --- | --- |
| CCCCCCCCCCCCCCSc1nc(NCCCCCCCC)nc(NCCCN(C)C)n1 [Compound D6S14N8] | 80.6% |
| CCCCCCCCCCCCCCSc1nc(NCCCCCCCCCCC)nc(NCCCN(C)C)n1 [Compound D6S14N11] | 20.1% |
| CCCCCCCCCCCCCCSc1nc(NCCCCCCCCCCCC)nc(NCCCN(C)C)n1 [Compound D6S14N12] | 17.0% |
| CCCCCCCCCCCCCCSc1nc(NCCCCCCCCCCCCC)nc(NCCCN(C)C)n1 [Compound D6S14N13] | 5.2% |
| CCCCCCCCCCCCCCCNc1nc(NCCCN(C)C)nc(SCCCCCCCCCCCCCC)n1 [Compound D6S14N15] | 0.1% |
| CCCCCCCCCCCCCCCCNc1nc(NCCCN(C)C)nc(SCCCCCCCCCCCCCC)n1 [Compound D6S14N16] | 0.5% |
| CCCCCCCCCCCCCCCCCCNc1nc(NCCCN(C)C)nc(SCCCCCCCCCCCCCC)n1 [Compound D6S14N18] | 0.7% |
| CCCCCCCCCCCCCCCSc1nc(NCCCCCC)nc(NCCCN(C)C)n1 [Compound D6S15N6] | 37.4% |
| CCCCCCCCCCCCCCCSc1nc(NCCCCCCC)nc(NCCCN(C)C)n1 [Compound D6S15N7] | 46.1% |
| CCCCCCCCCCCCCCCSc1nc(NCCCCCCCC)nc(NCCCN(C)C)n1 [Compound D6S15N8] | 6.9% |
| CCCCCCCCCCCCCCCSc1nc(NCCCCCCCCC)nc(NCCCN(C)C)n1 [Compound D6S15N9] | 61.9% |
| CCCCCCCCCCCCCCCSc1nc(NCCCCCCCCCCC)nc(NCCCN(C)C)n1 [Compound D6S15N11] | 7.8% |
| CCCCCCCCCCCCCCCSc1nc(NCCCCCCCCCCCC)nc(NCCCN(C)C)n1 [Compound D6S15N12] | 9.6% |
| CCCCCCCCCCCCCCCSc1nc(NCCCCCCCCCCCCC)nc(NCCCN(C)C)n1 [Compound D6S15N13] | 0.8% |
| CCCCCCCCCCCCCCCNc1nc(NCCCN(C)C)nc(SCCCCCCCCCCCCCCC)n1 [Compound D6S15N15] | 0.8% |
| CCCCCCCCCCCCCCCCNc1nc(NCCCN(C)C)nc(SCCCCCCCCCCCCCCC)n1 [Compound D6S15N16] | 0.2% |
| CCCCCCCCCCCCCCCCCCNc1nc(NCCCN(C)C)nc(SCCCCCCCCCCCCCCC)n1 [Compound D6S15N18] | 1.9% |
| CCCCCCCCCCCCCCCCSc1nc(NCCCCCC)nc(NCCCN(C)C)n1 [Compound D6S16N6] | 96.4% |
| CCCCCCCCCCCCCCCCSc1nc(NCCCCCCC)nc(NCCCN(C)C)n1 [Compound D6S16N7] | 88.3% |
| CCCCCCCCCCCCCCCCSc1nc(NCCCCCCCC)nc(NCCCN(C)C)n1 [Compound D6S16N8] | 91.5% |
